In one data set the target is T1, HDAC8 (Homo sapiens, UniProt Q9BY41).
T1 sequence (Q9BY41 1-377): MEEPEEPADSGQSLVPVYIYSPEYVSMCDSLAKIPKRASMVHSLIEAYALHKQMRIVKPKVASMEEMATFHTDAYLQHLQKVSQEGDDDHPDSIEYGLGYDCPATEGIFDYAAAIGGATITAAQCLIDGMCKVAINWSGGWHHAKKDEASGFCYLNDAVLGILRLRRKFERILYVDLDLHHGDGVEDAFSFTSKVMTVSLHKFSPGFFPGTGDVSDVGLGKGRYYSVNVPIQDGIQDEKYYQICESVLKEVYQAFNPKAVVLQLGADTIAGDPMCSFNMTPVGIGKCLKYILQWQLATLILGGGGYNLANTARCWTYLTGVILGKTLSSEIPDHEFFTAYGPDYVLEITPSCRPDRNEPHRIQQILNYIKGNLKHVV
As to the kind of experiment: biochemical. Here is the method:
Briefly, all of the compounds are dissolved in DMSO. A series of dilutions of the compounds were prepared with 10% DMSO in HDAC assay buffer and 5 μl of the dilution was added to a 50 μl reaction so that the final concentration of DMSO is 1% in all of reactions. The compounds were pre-incubated in duplicate at RT for 1 hour in a mixture containing HDAC assay buffer, 5 μg BSA, HDAC enzyme (see Table 7) and a the particular HDACi. After 1 hour, the enzymatic reactions were initiated by the addition of HDAC substrate (BPS Bioscience) to a final concentration of 10 μM or 2 μM. The enzymatic reaction proceeded for 30 minutes at 37° C.
HDAC activity assays were performed in duplicates at each concentration. The fluorescent intensity data were analyzed using the computer software, Graphpad Prism. In the absence of the compound, the fluorescent intensity (Ft) in each data set was defined as 100% activity. In the absence of HDAC, the fluorescent intensity (Fb) in each data set was defined as 0% activity. The percent activity in the presence of each compound was calculated according to the following equation: % activity=(F−Fb)/(Ft−Fb), where F=the fluorescent intensity in the presence of the compound. […]

A short description of data set [1]: Single dose pharmacokinetics of oral nanatinostat in patients. It is filed as in vivo, humans. The note with it: human, serum; for AUC: read-out: AUC (ng-h/mL), geometric mean; for AUC(0-t): read-out: AUClast (ng-h/mL), geometric mean; for Cmax: read-out: Cmax (ng/mL), geometric mean; for Tmax: read-out: Tmax (h), median (range).
The subject of data set [2] is Histone 3 acetylation in peripheral blood mononuclear cells. Kind of data set: H3 acetylation in PBMC by flow cytometry. In kind it is cell-based, human. An excerpt: Percentage of cells with H3 acetylation, as determined by flow cytometry, is shown.
Since H3 acetylation is a pharmacodynamic biomarker of Nstat activity, acetylation of H3 was examined in treated cells.
On the technique in general: A flow cytometer gives signals particle by particle.

For data set [3], the system named is P3HR1 Burkitt's lymphoma cells. Kind of data set: Cell death (7AAD) after Nstat, washout, then ganciclovir. Here is the method:
P3HR1 Burkitt's lymphoma cells were incubated with DMSO (solvent control) or Nstat for 3 days. After that time cell cultures were washed re-fed with ganciclovir (GCV) for an additional 3 days. All test conditions were run in triplicate. Cell death was measured by 7AAD staining.

The subject of another data set is HDAC 1-3. The following applies: descriptive statement; cited from earlier work.
Another data set concerns the target T2, HDAC 6 (Homo sapiens, UniProt Q9UBN7).
T2 sequence (Q9UBN7 1-1215): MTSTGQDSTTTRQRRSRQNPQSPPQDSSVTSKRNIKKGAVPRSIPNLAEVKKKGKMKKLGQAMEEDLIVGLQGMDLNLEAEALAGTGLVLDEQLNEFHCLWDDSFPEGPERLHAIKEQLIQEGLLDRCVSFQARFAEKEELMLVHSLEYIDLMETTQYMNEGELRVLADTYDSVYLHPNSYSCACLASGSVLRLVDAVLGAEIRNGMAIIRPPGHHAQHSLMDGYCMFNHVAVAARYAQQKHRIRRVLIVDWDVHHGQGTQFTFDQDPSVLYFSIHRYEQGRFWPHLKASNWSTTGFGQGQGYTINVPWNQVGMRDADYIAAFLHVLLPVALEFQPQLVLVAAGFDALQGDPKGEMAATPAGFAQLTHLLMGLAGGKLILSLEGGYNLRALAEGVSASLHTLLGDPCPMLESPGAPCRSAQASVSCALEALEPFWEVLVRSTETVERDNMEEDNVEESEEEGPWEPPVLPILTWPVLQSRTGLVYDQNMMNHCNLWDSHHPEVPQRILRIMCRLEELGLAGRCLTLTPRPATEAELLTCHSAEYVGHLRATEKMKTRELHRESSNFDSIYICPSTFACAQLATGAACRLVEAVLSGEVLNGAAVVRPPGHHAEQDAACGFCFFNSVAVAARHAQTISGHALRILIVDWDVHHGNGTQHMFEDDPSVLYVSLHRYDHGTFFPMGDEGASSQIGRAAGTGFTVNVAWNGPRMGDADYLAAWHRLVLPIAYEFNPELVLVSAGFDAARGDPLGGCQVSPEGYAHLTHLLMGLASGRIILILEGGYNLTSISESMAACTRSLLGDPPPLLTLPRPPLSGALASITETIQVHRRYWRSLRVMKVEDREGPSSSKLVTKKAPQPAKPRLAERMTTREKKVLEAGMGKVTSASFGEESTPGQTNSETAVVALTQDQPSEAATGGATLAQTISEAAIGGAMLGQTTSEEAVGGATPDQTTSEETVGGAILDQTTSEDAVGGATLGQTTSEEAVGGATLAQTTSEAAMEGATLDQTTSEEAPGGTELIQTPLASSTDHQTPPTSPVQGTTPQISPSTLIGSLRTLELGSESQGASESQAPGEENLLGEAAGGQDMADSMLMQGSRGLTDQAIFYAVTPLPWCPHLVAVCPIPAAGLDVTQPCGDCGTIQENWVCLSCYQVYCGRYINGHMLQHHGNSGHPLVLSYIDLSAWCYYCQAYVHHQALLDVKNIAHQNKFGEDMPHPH
The note with it: descriptive statement; cited from earlier work.

Where [4] appears, read: 5 mg, A = 5 mg VRx-3996 p.o. and 450 mg Valganciclovir p.o., single dose.
Setting [5] is: 10 mg, B = 10 mg VRx-3996 p.o. and 450 mg Valganciclovir p.o., single dose.
The mark [6] stands for this setting: 10 mg, C = 10 mg VRx-3996 p.o. and 900 mg Valganciclovir p.o., single dose.

Where two headings read alike, the source gives them in different places.

`O=C(NO)c1cnc(N2C[C@@H]3[C@H](C2)[C@H]3NCc2ccc3cc(F)ccc3n2)nc1` [Nanatinostat, 2-((1R,5S,6s)-6-(((6-fluoroquinolin-2-yl)methyl)amino)-3-azabicyclo[3.1.0]hexan-3-yl)-N-hydroxypyrimidine-5-carboxamide]: the IC50 (in general, the midpoint of a concentration-inhibition curve) at HDAC8 amounted to 0.86 µM. Further, the AUC is 117 ng·h/mL in data set [1] (setting [4]), 317 ng·h/mL in data set [1] (setting [5]) and 322 ng·h/mL in data set [1] (setting [6]). For the same compound, the AUC(0-t) turned out to be 40.5 ng·h/mL in data set [1] (setting [4]), 165 ng·h/mL in data set [1] (setting [5]) and 227 ng·h/mL in data set [1] (setting [6]). In addition, the values for the Cmax in data set [1] (setting [4]), in data set [1] (setting [5]) and in data set [1] (setting [6]) were 18.5 ng/mL, 62.6 ng/mL and 78.9 ng/mL, respectively. Also, the half-life is 2.18 h in data set [1] (5 mg, A = 5 mg VRx-3996 p.o. and 450 mg Valganciclovir p.o., single dose, read-out: Half-Life (h), geometric mean (converted)); 1.17 h in data set [1] (10 mg, B = 10 mg VRx-3996 p.o. and 450 mg Valganciclovir p.o., single dose, read-out: Half-Life (h), geometric mean (converted)); 1.67 h in data set [1] (10 mg, C = 10 mg VRx-3996 p.o. and 900 mg Valganciclovir p.o., single dose, read-out: Half-Life (h), geometric mean (converted)); roughly 2 h in data set [1] (humans, oral, summary of Table 6, read-out: T1/2 (converted)). The results for the Tmax in data set [1] (setting [4]), in data set [1] (setting [5]) and in data set [1] (setting [6]) were 3 h, 2 h and 1 h, respectively. Also, the “Duration of effect on H3 acetylation” value in data set [2] (PBMC of healthy donors, time-course, doses down to 10 nM, FIG. 3) was “long-lasting”. Further, the “Potency in inducing elevated levels of Histone 3 acetylation” value in data set [2] (PBMC of healthy volunteers, even at 100 nM, FIG. 2) is listed as “much more potent than entinostat”. In addition, the “Increase of cytotoxic activity when combined with Ganciclovir” value in data set [3] is roughly 40%. Also, in data set [3] (EBV infected cell line, seen even after Nstat removal), the “Cell cytotoxicity when combined with ganciclovir” value was “increases cell cytotoxicity”. The “Activity against HDAC 1-3” value in the data set with HDAC 1-3 is recorded as “active against HDAC 1-3”. On HDAC 6, the “Activity against HDAC 6” value was “not HDAC 6”.

Source of the values: patent publication US10953011B2, “Methods of treating virally associated cancers with histone deacetylase inhibitors” (priority 2019, dated 2021).
